Blank lines part the entries; values can stand above or below the compound they belong to. Active and inactive are the calls of the source.
Tests used:
A-375 = assay: MITF: Counter assay: A375 proliferation Measured in Cell-Based System Using Plate Reader - 2084-03_Inhibitor_Dose_DryPowder_Activity. [Related pubchem assays (depositor defined):AID488944]; format: functional; conditions: Homo sapiens
[1] = target: T1, Microphthalmia-associated transcription factor (Homo sapiens, UniProt O75030); assay: TRPM1 promoter luciferase signal decrease, dose response, MITF inhibitor project, cell-based, SK-MEL-5, cherry-picked, set 3 (AID 493073); format: functional
T1 sequence (O75030 whole entry): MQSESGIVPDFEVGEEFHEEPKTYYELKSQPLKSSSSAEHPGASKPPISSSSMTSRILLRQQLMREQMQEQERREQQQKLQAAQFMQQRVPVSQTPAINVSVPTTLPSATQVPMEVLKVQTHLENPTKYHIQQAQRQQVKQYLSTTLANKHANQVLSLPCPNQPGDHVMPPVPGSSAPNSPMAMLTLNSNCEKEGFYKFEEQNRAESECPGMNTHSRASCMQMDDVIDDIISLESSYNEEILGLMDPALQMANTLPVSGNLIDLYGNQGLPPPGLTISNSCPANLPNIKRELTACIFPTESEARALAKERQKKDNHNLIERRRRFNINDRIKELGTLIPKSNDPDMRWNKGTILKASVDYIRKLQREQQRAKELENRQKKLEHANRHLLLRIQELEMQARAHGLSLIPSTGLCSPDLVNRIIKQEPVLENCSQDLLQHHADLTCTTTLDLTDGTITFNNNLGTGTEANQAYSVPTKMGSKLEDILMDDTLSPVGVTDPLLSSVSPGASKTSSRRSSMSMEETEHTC

Paired box protein Pax-8 = Paired box protein Pax-8 (Homo sapiens, UniProt Q06710); assay: inhibitors of PAX8-driven TPO luciferase reporter, dose response, RMG-I cells, cherry-pick (AID 687027); format: functional, cell-based;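 further: luciferase reporter driven by Pax8 target thyroperoxidase promoter measured by SteadyGlo luminescence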
Hexokinase HKDC1 = target: T2, Hexokinase HKDC1 (Homo sapiens, UniProt Q2TB90); assay: HKDC1 hexokinase inhibitors, dose response, biochemical, W721R variant (AID 504729); format: functional
T2 sequence (Q2TB90 whole entry): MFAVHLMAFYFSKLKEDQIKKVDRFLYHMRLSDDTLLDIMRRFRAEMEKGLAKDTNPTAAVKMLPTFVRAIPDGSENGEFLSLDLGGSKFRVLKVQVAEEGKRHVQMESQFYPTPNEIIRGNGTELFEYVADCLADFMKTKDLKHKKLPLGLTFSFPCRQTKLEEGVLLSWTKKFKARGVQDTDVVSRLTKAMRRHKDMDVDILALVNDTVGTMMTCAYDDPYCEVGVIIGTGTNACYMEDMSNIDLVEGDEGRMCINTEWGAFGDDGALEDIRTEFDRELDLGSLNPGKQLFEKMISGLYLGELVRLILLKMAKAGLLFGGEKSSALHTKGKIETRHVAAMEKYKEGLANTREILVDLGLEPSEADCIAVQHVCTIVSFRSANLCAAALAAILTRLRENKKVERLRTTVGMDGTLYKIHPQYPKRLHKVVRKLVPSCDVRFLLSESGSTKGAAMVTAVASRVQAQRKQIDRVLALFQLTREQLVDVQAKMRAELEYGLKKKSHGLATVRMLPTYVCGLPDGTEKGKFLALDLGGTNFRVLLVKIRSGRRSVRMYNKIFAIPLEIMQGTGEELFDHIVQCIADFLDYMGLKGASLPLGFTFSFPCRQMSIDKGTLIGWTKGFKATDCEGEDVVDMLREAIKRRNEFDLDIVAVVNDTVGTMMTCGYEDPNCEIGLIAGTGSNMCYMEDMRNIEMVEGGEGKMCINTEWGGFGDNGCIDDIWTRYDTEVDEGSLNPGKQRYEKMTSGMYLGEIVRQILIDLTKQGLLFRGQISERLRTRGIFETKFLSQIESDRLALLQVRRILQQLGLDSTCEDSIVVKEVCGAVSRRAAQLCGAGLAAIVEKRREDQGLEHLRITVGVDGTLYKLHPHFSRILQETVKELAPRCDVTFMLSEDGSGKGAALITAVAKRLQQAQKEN

[2] = inhibitors of intracellular T. cruzi replication, confirmation, NIH3T3 host cells, beta-gal luminescence (AID 2044); format: functional, cell-based;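 further: intracellular parasites grown in NIH/3T3 mouse fibroblasts as host cells; luminescent beta-galactosidase reporter signal from transgenic T. cruzi replicating inside host cells; inhibitors lower the luminescence signal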
cells [3] = format: functional, cell-based
cells [4] = format: functional, cell-based; remark: listed apart in the source
[5] = target: Vascular endothelial growth factor receptor 2 (Homo sapiens, UniProt P35968); format: functional
Sequence of Vascular endothelial growth factor receptor 2 (P35968 whole entry): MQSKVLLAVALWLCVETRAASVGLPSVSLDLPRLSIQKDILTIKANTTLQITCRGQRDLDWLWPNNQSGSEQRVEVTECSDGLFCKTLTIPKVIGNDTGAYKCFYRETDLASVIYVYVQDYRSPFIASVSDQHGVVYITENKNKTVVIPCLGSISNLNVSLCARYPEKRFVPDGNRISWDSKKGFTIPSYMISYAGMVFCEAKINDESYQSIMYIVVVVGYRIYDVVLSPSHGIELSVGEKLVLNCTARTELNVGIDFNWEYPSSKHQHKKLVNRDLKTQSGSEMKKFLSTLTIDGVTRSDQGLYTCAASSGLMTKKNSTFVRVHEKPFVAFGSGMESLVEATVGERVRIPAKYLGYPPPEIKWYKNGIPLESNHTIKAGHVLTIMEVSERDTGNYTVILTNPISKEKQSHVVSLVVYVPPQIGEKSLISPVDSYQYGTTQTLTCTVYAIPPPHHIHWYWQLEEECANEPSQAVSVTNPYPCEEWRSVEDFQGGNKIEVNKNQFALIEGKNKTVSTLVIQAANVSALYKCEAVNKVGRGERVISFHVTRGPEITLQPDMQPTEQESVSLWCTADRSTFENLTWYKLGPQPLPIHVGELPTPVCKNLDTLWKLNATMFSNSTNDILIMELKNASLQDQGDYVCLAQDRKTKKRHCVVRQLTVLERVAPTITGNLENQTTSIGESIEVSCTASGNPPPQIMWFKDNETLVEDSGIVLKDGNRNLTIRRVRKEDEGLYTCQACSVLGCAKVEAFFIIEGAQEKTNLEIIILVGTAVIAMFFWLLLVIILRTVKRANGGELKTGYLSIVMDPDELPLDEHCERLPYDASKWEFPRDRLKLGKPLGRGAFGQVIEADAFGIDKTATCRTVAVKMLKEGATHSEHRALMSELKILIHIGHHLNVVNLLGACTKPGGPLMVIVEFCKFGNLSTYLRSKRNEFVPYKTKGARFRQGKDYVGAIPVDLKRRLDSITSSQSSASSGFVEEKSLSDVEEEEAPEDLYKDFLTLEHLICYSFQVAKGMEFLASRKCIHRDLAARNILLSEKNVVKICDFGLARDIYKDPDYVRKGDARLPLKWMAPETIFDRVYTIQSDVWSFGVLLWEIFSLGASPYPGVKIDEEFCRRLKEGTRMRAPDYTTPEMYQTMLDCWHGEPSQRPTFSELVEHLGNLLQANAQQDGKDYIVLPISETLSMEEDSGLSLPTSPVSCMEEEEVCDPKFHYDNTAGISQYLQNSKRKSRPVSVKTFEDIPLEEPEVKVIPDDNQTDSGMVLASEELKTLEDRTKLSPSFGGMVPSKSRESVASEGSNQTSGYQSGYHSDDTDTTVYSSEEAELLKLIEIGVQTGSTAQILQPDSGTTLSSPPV

[6] = target: High affinity nerve growth factor receptor (Homo sapiens, UniProt P04629); format: functional;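 further: NTRK1 tested as one member of a kinome-wide profiling panel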
[7] = target: Leucine-rich repeat serine/threonine-protein kinase 2 (Homo sapiens, UniProt Q5S007); format: functional;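 further: value from a broad kinome-wide panel profiling study in which LRRK2 was one of the kinases tested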
[8] = target: Platelet-derived growth factor receptor alpha (Homo sapiens, UniProt P16234); assay: Navigating the Kinome. Panel member name: PDGFRA; format: functional
Sequence of Platelet-derived growth factor receptor alpha (P16234 whole entry): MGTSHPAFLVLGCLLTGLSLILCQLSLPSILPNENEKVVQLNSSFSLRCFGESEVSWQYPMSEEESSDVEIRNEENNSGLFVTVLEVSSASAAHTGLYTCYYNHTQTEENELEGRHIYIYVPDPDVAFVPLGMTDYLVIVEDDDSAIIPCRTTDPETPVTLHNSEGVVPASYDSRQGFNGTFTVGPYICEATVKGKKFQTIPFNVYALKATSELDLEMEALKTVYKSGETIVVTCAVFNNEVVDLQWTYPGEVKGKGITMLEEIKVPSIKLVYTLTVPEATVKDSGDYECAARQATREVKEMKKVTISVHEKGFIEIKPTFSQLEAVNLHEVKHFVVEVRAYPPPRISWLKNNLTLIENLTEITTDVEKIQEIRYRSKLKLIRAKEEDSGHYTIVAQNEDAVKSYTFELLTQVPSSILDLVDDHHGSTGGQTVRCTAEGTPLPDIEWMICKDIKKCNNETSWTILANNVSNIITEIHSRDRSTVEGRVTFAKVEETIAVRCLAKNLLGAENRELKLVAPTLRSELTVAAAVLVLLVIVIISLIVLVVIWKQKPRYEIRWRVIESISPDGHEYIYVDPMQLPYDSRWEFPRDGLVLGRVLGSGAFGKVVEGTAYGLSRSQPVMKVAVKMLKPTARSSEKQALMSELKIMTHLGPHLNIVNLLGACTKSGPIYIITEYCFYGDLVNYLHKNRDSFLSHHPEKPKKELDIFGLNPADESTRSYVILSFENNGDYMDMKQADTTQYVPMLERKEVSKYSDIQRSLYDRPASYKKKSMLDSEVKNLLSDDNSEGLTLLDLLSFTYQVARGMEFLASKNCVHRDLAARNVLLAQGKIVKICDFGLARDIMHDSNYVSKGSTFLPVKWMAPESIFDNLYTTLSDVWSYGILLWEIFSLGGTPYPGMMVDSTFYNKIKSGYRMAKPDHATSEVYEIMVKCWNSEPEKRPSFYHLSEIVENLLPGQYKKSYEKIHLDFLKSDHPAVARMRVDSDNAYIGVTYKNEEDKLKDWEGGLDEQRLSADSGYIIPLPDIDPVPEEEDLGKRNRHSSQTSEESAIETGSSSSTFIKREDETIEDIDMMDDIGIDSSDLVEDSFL

[9] = target: Serine/threonine-protein kinase pim-1 (Homo sapiens, UniProt P11309); format: functional
Sequence of Serine/threonine-protein kinase pim-1 (P11309 whole entry): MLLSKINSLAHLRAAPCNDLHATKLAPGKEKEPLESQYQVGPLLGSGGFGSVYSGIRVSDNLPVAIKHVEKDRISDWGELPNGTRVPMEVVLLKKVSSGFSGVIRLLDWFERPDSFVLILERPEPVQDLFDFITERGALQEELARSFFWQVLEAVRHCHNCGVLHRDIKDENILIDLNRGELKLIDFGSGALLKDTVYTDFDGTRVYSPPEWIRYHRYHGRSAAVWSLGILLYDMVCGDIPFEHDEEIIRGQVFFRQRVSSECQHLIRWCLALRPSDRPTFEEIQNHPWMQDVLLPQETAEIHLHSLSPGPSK

[10] = target: Dual specificity mitogen-activated protein kinase kinase 1 (Homo sapiens, UniProt Q02750); assay: Navigating the Kinome. Panel member name: MAP2K1; format: functional
Sequence of Dual specificity mitogen-activated protein kinase kinase 1 (Q02750 whole entry): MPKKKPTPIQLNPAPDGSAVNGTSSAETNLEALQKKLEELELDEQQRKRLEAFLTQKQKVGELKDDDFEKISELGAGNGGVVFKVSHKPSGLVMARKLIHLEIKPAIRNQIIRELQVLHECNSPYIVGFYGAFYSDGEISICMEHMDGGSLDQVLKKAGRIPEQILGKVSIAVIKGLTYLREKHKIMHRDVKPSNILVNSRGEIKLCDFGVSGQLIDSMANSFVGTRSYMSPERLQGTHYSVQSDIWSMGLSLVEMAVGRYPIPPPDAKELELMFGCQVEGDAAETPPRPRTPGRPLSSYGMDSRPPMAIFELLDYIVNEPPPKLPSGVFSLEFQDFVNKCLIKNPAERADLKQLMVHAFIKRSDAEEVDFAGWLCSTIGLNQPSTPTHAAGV

[11] = target: Vascular endothelial growth factor receptor 1 (Homo sapiens, UniProt P17948); format: functional;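 further: measured within a kinome-wide profiling panel, FLT1 as the panel member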
[12] = target: Serine/threonine-protein kinase D3 (Homo sapiens, UniProt O94806); format: functional;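 further: determined within a kinase panel screen, with PRKCN as the panel member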
[13] = target: Rho-associated protein kinase 1 (Homo sapiens, UniProt Q13464); format: functional;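 further: measured within a broad kinome-wide panel profiling many kinases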
[14] = target: Cyclin-dependent kinase 9 (Homo sapiens, UniProt P50750); format: functional;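 further: value from the CDK9 entry of a kinome-spanning kinase panel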
[15] = target: Cyclin-dependent kinase 7 (Homo sapiens, UniProt P50613); format: functional;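 further: value comes from a kinome-wide kinase profiling panel in which CDK7 is one member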
[16] = target: Calcium/calmodulin-dependent protein kinase type II subunit alpha (Homo sapiens, UniProt Q9UQM7); assay: Navigating the Kinome. Panel member name: CAMK2A; format: functional
Sequence of Calcium/calmodulin-dependent protein kinase type II subunit alpha (Q9UQM7 whole entry): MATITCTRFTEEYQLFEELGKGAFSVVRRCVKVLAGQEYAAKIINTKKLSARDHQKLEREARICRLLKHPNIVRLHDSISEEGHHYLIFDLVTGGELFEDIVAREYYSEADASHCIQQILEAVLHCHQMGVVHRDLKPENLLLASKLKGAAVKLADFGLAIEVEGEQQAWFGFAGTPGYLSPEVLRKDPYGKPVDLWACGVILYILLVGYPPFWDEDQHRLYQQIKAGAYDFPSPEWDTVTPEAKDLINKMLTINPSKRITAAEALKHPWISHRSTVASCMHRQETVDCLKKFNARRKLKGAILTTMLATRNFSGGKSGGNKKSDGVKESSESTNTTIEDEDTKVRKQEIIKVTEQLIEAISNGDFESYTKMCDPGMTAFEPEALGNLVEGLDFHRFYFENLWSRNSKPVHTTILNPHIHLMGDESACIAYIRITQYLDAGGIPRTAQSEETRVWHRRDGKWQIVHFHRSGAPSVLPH

[17] = target: Receptor-type tyrosine-protein kinase FLT3 (Homo sapiens, UniProt P36888); format: functional;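 further: FLT3 was tested as one member of a kinome-wide kinase panel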
Sequence of Receptor-type tyrosine-protein kinase FLT3 (P36888 whole entry): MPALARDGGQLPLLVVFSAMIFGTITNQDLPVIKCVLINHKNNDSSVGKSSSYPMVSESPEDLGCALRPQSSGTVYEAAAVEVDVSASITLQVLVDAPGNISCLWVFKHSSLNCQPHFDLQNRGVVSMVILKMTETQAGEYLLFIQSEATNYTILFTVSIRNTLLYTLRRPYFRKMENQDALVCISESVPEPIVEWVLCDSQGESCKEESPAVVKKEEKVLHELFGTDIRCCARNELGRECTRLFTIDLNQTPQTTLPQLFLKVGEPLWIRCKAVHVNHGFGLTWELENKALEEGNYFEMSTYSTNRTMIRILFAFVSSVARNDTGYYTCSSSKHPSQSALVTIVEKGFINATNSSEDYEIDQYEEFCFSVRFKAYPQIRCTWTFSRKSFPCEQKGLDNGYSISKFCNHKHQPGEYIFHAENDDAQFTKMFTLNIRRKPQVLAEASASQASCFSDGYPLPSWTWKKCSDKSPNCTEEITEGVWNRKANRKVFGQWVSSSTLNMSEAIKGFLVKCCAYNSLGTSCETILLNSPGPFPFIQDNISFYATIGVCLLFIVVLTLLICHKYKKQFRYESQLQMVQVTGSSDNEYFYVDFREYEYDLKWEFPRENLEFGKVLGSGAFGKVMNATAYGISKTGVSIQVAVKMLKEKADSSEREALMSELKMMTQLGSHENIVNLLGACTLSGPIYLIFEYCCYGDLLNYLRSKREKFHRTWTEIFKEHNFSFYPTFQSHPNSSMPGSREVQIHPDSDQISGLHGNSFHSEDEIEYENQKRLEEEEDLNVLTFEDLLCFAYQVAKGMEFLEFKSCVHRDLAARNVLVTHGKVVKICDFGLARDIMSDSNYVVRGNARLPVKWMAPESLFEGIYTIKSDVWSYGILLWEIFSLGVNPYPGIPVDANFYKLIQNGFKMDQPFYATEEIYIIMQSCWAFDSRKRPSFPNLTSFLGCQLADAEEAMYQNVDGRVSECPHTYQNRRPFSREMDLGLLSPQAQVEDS

[18] = target: Mitogen-activated protein kinase 8 (Homo sapiens, UniProt P45983); format: functional;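 further: value comes from one member of a kinome-wide kinase profiling panel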
Sequence of Mitogen-activated protein kinase 8 (P45983 whole entry): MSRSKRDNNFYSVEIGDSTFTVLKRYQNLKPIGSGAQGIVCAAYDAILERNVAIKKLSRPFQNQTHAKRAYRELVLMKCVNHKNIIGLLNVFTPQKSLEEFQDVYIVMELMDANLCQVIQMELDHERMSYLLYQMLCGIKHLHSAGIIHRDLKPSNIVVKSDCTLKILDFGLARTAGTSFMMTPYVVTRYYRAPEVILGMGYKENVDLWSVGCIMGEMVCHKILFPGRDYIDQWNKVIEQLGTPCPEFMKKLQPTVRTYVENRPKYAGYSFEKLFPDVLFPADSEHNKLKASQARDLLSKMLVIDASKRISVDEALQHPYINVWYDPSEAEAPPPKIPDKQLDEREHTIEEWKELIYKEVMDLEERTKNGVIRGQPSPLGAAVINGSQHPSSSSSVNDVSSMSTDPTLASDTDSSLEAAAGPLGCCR

[19] = target: Mast/stem cell growth factor receptor Kit (Homo sapiens, UniProt P10721); format: functional;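 further: KIT entry within a kinase panel assay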

Compound: CCc1cc[n+](C2=C([N-]S(=O)(=O)c3cccs3)C(=O)c3ccccc3C2=O)cc1
AC50 (A-375): 35400 nM (active) | AC50 [1]: 1150 nM (active)

Compound: O=C(NC1=C(NC2CCS(=O)(=O)C2)C(=O)c2ccccc2C1=O)c1ccccc1 (configuration not stated)
AC50 (Paired box protein Pax-8): 6400 nM (active) | IC50 (Hexokinase HKDC1): 5140 nM (active)

Compound: CCCC(=O)NC(c1ccc(N(C)C)cc1)c1ccc2cccnc2c1O (configuration not stated)
EC50 [2]: 480 nM (active) | EC50 (cells [3]): > 350000 nM (not active) | EC50 (cells [4]): 4760 nM (active)

Ki [5]: 794 nM (active) | Ki [6]: 2510 nM (active) | Ki [7]: 398 nM (active) | Ki [8]: > 2510 nM (inactive) | Ki [9]: 100 nM (active) | Ki [10]: 794 nM (active) | Ki [11]: > 2510 nM (inactive) | Ki [12]: 1580 nM (active) | Ki [13]: > 2000 nM (inactive) | Ki [14]: 316 nM (active) | Ki [15]: 1260 nM (active) | Ki [16]: 501 nM (active) | Ki [17]: > 3160 nM (inactive) | Ki [18]: > 5010 nM (inactive) | Ki [19]: > 6310 nM (inactive)
Compound: O=C1NC(=O)C(c2c[nH]c3ccccc23)=C1c1nc(N2CCNCC2)nc2ccccc12

— ChEMBL document CHEMBL1201862, “PubChem BioAssay data set” (2004)
